According to patent US20220351806A1, “Biomarker Panels for Guiding Dysregulated Host Response Therapy” (Endpoint Health Inc., priority 2019, published 2022):

Tested on: sepsis patients
Test: VANISH trial survival analysis, hydrocortisone vs placebo, by patient subtype classifier
Format: in vivo, human
Set-up: mortality reduction in the placebo group in comparison to the hydrocortisone group / Mortality rate: concentration or dose not given beside the values
Settings: for Mortality reduction: Hydro vs Placebo; for hydro_alive / hydro_dead / mr: SS.B2 Model; for mr: 28-day mortality reduction hydro vs placebo; for Alive / Dead / Mortality rate / Survival rate: Hydro group
From the text: The test expression data from each trial were normalized by the platform normalization matrix described above^13 so that the test data were more consistent with the training data. The classifiers (e.g., the Full Model, the SS Model, the S Model, and the P Model) were then applied to the normalized data such that the patients were classified into A, B, and C subtypes. […] Therefore, each sample in the target samples was normalized independently with the normalization matrix of the sample array platform.
Survival and mortality rates were calculated at day 28 because survival and mortality labels at other time points were not available. […] Binomial and Chi-squared with continuity correction tests were used to test for the significance of these differences.
In one example, previously identified subtypes of sepsis patients were used to tune the model to identify these type A and B patients. Two distinct sepsis response signatures (SRS1 and SRS2) were identified in five public studies (E-MTAB-4421, E-MTAB-4451, E-MTAB-5273, E-MTAB-5274, and E-MTAB-7581), where HumanHT-12 v4 BeadChip were used to generate the gene expression profiles of the patient samples. The processed data of those five studies were downloaded and processed using R programming language and software environment for statistical analysis (version 3.6.3). The Bioconductor annotation package, illuminaHumanv4.db (version 1.26.0), was used to annotate microarray probes and expression levels of genes were determined by each individual probe or mean of probes belonging to the same gene. In order to remove cohort biases, the Bioconductor package, limma (version 3.42.2), was used to remove batch effects. Using ss.b2 panel genes, subtype A, B, and C scores were calculated by geometric mean of up/down genes.
To build the classifier, we defined E-MTAB-4421, E-MTAB-4451, E-MTAB-5273, and E-MTAB-5274 as the training dataset and VANISH (E-MTAB-7581) as the testing dataset. We used features (subtype A, B, and C scores) and class labels (SRS1 vs SRS2) in the training dataset to build a machine-learned classifier based on support-vector machine (SVM) method. SVM is a supervised machine learning method for classification analysis. The algorithm finds a single or a set of hyperplanes that maximize the margin among subtype A, B, and C scores. In order to capture non-linear data, the kernel function was used. R package e1071 was used to build the SVM classifier with following parameters: method=“C-classification”, kernal=“radial”, gamma=0.1, and cost=10.
The accuracy of the classifiers was evaluated by Leave-One-Out (LOO) cross-validation over the training dataset. Also the classifier was applied to 117 controlled samples from VANISH trial.
In addition to the SVM-method, thresholds can be employed to scores in order to define A vs. B labels. […] Therefore we applied a heuristic threshold (threshold=0) to subtype A and B scores to classify SRS1-like and SRS2-like in VANISH: SRS2-like label was assigned to samples with subtype A score >0 and subtype B score <0 and SRS1-like label was assigned to the rest of samples.
Besides the heuristic threshold, we also derived the thresholds for subtype A and B scores using the training dataset. Same as the SVM method, we defined E-MTAB-4421, E-MTAB-4451, E-MTAB-5273, and E-MTAB-5274 as the training dataset and VANISH (E-MTAB-7581) as the testing dataset.

[1] = class A, A score cutoff 0.0000, B score cutoff 0.0000, accuracy in training set 0.74830, 76.07% of patients
[2] = class A, A score cutoff 0.0000, B score cutoff 0.0000, accuracy in training set 0.74830, 76.92% of patients
[3] = class A, A score cutoff 0.0000, B score cutoff 0.0000, accuracy in training set 0.75283, 76.92% of patients
[4] = class A, A score cutoff 0.0000, B score cutoff 0.0000, accuracy in training set 0.75283, 82.91% of patients
[5] = class A, A score cutoff 0.0000, B score cutoff 0.0000, accuracy in training set 0.76871, 62.39% of patients
[6] = class A, A score cutoff 0.0000, B score cutoff 0.0000, accuracy in training set 0.76871, 76.92% of patients
[7] = class A, A score cutoff −0.0406, B score cutoff 0.1067, accuracy in training set 0.79592, 58.12% of patients
[8] = class A, A score cutoff −0.0406, B score cutoff 0.1067, accuracy in training set 0.79592, 74.36% of patients
[9] = class A, A score cutoff −0.1277, B score cutoff 0.3630, accuracy in training set 0.83673, 60.68% of patients
[10] = class A, A score cutoff −0.1277, B score cutoff 0.3630, accuracy in training set 0.83673, 70.09% of patients
[11] = class A, A score cutoff −0.2664, B score cutoff 0.3179, accuracy in training set 0.82483, 58.12% of patients
[12] = class A, A score cutoff −0.2664, B score cutoff 0.3179, accuracy in training set 0.82483, 60.68% of patients
[13] = class B, A score cutoff 0.0000, B score cutoff 0.0000, accuracy in training set 0.74830, 23.08% of patients
[14] = class B, A score cutoff 0.0000, B score cutoff 0.0000, accuracy in training set 0.74830, 23.93% of patients
[15] = class B, A score cutoff 0.0000, B score cutoff 0.0000, accuracy in training set 0.75283, 17.09% of patients
[16] = class B, A score cutoff 0.0000, B score cutoff 0.0000, accuracy in training set 0.75283, 23.08% of patients
[17] = class B, A score cutoff 0.0000, B score cutoff 0.0000, accuracy in training set 0.76871, 23.08% of patients
[18] = class B, A score cutoff 0.0000, B score cutoff 0.0000, accuracy in training set 0.76871, 37.61% of patients
[19] = class B, A score cutoff −0.0406, B score cutoff 0.1067, accuracy in training set 0.79592, 25.64% of patients
[20] = class B, A score cutoff −0.0406, B score cutoff 0.1067, accuracy in training set 0.79592, 41.88% of patients
[21] = class B, A score cutoff −0.1277, B score cutoff 0.3630, accuracy in training set 0.83673, 29.91% of patients
[22] = class B, A score cutoff −0.2664, B score cutoff 0.3179, accuracy in training set 0.82483, 39.32% of patients
[23] = class B, A score cutoff −0.2664, B score cutoff 0.3179, accuracy in training set 0.82483, 41.88% of patients
[24] = VANISH trial, day 28, Full Model, Total
[25] = VANISH trial, day 28, Full Model, subtype A
[26] = VANISH trial, day 28, Full Model, subtype B

`C[C@]12CCC(=O)C=C1CC[C@@H]1[C@@H]2[C@@H](O)C[C@@]2(C)[C@H]1CC[C@]2(O)C(=O)CO` [Hydro, hydrocortisone] was tested, and the Mortality reduction (1-(lower/higher mortality rate), VANISH trial, day 28, Full Model, Total) was 33.0%, the Mortality reduction (1-(lower/higher mortality rate), VANISH trial, day 28, Full Model, subtype A) was 64.6% and the Mortality reduction (1-(lower/higher mortality rate), VANISH trial, day 28, Full Model, subtype B) was 35.2%. The Mortality reduction (1-(lower/higher mortality rate), VANISH trial, day 28, Full Model, subtype C) was 56.8%, the Mortality reduction (1-(lower/higher mortality rate), VANISH trial, day 28, Full Model, subtypes CA) was 60.6% and the Mortality reduction (1-(lower/higher mortality rate), VANISH trial, day 28, P Model, Total) was 33.0%. The Mortality reduction (1-(lower/higher mortality rate), VANISH trial, day 28, P Model, subtype A) was 77.6%, the Mortality reduction (1-(lower/higher mortality rate), VANISH trial, day 28, P Model, subtype B) was 9.7% and the Mortality reduction (1-(lower/higher mortality rate), VANISH trial, day 28, P Model, subtypes CA) was 56.5%. It also gave a Mortality reduction (1-(lower/higher mortality rate), VANISH trial, day 28, SS Model, Total) of 33.0%, a Mortality reduction (1-(lower/higher mortality rate), VANISH trial, day 28, SS Model, subtype A) of 86.0% and a Mortality reduction (1-(lower/higher mortality rate), VANISH trial, day 28, SS Model, subtype B) of 20.0%. The Mortality reduction (1-(lower/higher mortality rate), VANISH trial, day 28, SS Model, subtype C) was 4.0%, the Mortality reduction (1-(lower/higher mortality rate), VANISH trial, day 28, SS Model, subtypes CA) was 42.2% and the Mortality reduction (1-(lower/higher mortality rate), VANISH trial, day 28, SS.B2 Model (SVM), Total) was 33.0%. The Mortality reduction (1-(lower/higher mortality rate), VANISH trial, day 28, SS.B2 Model (SVM), type A (SRS2-like)) was 77.3%, the Mortality reduction (1-(lower/higher mortality rate), VANISH trial, day 28, SS.B2 Model (SVM), type B (SRS1-like)) was 24.2% and the Mortality reduction (VANISH trial, day 28, S Model, subtype C) was “Hydro”. The Mortality reduction (VANISH trial, day 28, S Model, subtypes CA) was “Hydro”, the hydro_alive [1] was 29 and the hydro_dead [1] was 13. The mr [1] was 3.8%, the hydro_alive [2] was 29 and the hydro_dead [2] was 13. For the same compound, the mr [2] was 5.8%, the hydro_alive [3] was 29 and the hydro_dead [3] was 13. It also gave a mr [3] of 5.8%, a hydro_alive [4] of 32 and a hydro_dead [4] of 15. The mr [4] was 12.3%, the hydro_alive [5] was 21 and the hydro_dead [5] was 12. It also gave a mr [5] of 3.8%, a hydro_alive [6] of 29 and a hydro_dead [6] of 13. The mr [6] was 5.8%, the hydro_alive [7] was 21 and the hydro_dead [7] was 12. It also gave a mr [7] of 2.1%, a hydro_alive [8] of 29 and a hydro_dead [8] of 13. The mr [8] was 0.5%, the hydro_alive [9] was 25 and the hydro_dead [9] was 11. For the same compound, the mr [9] was 17.7%, the hydro_alive [10] was 28 and the hydro_dead [10] was 13. For the same compound, the mr [10] was 0.0%, the hydro_alive [11] was 23 and the hydro_dead [11] was 11. The mr [11] was 15.4%, the hydro_alive [12] was 24 and the hydro_dead [12] was 12. For the same compound, the mr [12] was 10.3%, the hydro_alive [13] was 7 and the hydro_dead [13] was 9. The mr [13] was 83.8%, the hydro_alive [14] was 7 and the hydro_dead [14] was 9. For the same compound, the mr [14] was 85.2%, the hydro_alive [15] was 4 and the hydro_dead [15] was 7. The mr [15] was 82.5%, the hydro_alive [16] was 7 and the hydro_dead [16] was 9. For the same compound, the mr [16] was 83.8%, the hydro_alive [17] was 7 and the hydro_dead [17] was 9. The mr [17] was 83.8%, the hydro_alive [18] was 15 and the hydro_dead [18] was 10. For the same compound, the mr [18] was 86.8%, the hydro_alive [19] was 7 and the hydro_dead [19] was 9. For the same compound, the mr [19] was 87.3%, the hydro_alive [20] was 15 and the hydro_dead [20] was 10. It also gave a mr [20] of 79.2%, a hydro_alive [21] of 8 and a hydro_dead [21] of 9. The mr [21] was 79.0%, the mr (class B, A score cutoff −0.1277, B score cutoff 0.3630, accuracy in training set 0.83673, 39.32% of patients) was 83.3% and the hydro_alive [22] was 12. It also gave a hydro_dead [22] of 10, a mr [22] of 81.7% and a hydro_alive [23] of 13. For the same compound, the hydro_dead [23] was 11, the mr [23] was 82.5% and the “mortality reduction in the placebo group in comparison to the hydrocortisone group” value (VANISH trial, 28-day, Type-A (SRS2-like) patients by SVM classifier on ss.b2 scores) was 75.5%. It also gave an Alive [24] of 36, a Dead [24] of 22 and a Mortality rate [24] of 37.9%. For the same compound, the Survival rate [24] was 62.1%, the Alive [25] was 9 and the Dead [25] was 8. The Mortality rate [25] was 47.1%, the Survival rate [25] was 52.9% and the Alive [26] was 16. For the same compound, the Dead [26] was 6, the Mortality rate [26] was 27.3% and the Survival rate [26] was 72.7%.
